IC50 data for 21 compounds are collected here from US20140005163A1 (NOVARTIS AG, priority 2010, published 2014).

Each structure is given as a SMILES string.

The target of assay [1] is T1, PI3K alpha (Homo sapiens, UniProt P42336).
T1 construct: p85(iSH2) fusion partner (see partner chain) (N); His tag (C); made in house; host or cells: baculovirus; Tn5 (Trichoplusia ni) or TiniPro insect cells
The assay can be described thus: PI3K alpha kinase assay (Kinase-Glo luminescence). Type of assay: biochemical. An outline of the steps: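 IC50 is taken from a four-parameter logistic fit of 8-point dilutions, with Kinase-Glo luminescence reporting residual ATP. Reactions ran 60 min at room temperature in TRIS pH 7.5 buffer with MgCl2, NaCl, CHAPS and DTT. Final levels were 10 nM enzyme, 1 μM ATP and 10 μg/mL PI.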

The target in assay [2] is T2, PI3K beta (Homo sapiens, UniProt P42338).
T2 construct: for the full-length p110-b subunit are generated and fused by overlapping PCR; p85(iSH2) fusion partner (see partner chain) (N); His tag (C); made in house; host or cells: baculovirus; Tn5 (Trichoplusia ni) or TiniPro insect cells
The assay can be described thus: PI3K beta kinase assay (Kinase-Glo luminescence). Type of assay: biochemical. An outline of the steps:
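Kinase-Glo luminescence after a 60 min room-temperature reaction gives remaining ATP. The reaction holds 25 nM p85(iSH2)-p110β full-length His-tagged construct, 1 μM ATP, 10 μg/mL PI, and eight compound concentrations at 0.45% DMSO final. IC50 values come from a four-parameter logistic fit.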
(Kinase-Glo measures the ATP left after a reaction by luminescence.)

For assay [3], the system named is PKB Ser473 phosphorylation in Rat1-myr-HA-p110 delta cells. The assay can be described thus: Reverse protein array assay, PKB Ser473 phosphorylation in Rat1-myr-p110 delta cells. The assay is classed as cell-based. Particulars: read-out: p-PKB IC50. In short, it runs like this:
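After at least 20 h of culture, the p110 isoform-transfected Rat1 lines receive compound in an 8-step dilution series, keeping DMSO at 0.2%, for 30 minutes. Cells are then lysed and lysates arrayed on chips for fluorescence detection of Ser473-phosphorylated PKB.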

T2 sequence (P42338 with tags, fused parts or gaps limits assumed): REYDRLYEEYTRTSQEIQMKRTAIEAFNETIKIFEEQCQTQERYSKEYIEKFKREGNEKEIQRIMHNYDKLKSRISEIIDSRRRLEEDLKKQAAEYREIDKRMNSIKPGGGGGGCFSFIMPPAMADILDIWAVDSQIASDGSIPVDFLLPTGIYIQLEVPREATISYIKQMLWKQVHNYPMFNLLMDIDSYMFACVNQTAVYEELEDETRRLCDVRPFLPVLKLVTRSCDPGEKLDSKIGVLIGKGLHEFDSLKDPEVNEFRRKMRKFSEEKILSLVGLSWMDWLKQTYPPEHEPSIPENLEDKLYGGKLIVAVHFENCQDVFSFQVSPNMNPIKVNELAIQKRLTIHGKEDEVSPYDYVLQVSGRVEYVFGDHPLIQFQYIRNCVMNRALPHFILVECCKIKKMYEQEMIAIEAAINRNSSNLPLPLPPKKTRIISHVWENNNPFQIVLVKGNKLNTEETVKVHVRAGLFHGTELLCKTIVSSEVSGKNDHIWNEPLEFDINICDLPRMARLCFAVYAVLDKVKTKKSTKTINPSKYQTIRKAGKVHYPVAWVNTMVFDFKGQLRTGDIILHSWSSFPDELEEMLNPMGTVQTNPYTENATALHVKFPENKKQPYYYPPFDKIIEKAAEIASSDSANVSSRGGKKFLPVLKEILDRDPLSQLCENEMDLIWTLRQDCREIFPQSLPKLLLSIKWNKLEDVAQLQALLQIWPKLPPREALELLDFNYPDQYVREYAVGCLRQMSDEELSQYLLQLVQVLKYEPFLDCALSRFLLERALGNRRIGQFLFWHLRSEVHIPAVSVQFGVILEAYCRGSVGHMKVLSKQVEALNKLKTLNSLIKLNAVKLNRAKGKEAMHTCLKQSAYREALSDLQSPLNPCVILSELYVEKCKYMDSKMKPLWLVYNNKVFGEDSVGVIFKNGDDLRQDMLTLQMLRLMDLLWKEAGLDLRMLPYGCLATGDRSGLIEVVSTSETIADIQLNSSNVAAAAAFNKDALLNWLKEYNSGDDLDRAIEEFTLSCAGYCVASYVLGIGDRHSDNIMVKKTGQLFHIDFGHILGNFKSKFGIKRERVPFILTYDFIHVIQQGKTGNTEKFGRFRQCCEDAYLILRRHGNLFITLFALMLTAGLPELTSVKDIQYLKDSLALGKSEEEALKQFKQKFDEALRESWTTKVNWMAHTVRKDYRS
T1 sequence (P42336 with tags, fused parts or gaps limits assumed): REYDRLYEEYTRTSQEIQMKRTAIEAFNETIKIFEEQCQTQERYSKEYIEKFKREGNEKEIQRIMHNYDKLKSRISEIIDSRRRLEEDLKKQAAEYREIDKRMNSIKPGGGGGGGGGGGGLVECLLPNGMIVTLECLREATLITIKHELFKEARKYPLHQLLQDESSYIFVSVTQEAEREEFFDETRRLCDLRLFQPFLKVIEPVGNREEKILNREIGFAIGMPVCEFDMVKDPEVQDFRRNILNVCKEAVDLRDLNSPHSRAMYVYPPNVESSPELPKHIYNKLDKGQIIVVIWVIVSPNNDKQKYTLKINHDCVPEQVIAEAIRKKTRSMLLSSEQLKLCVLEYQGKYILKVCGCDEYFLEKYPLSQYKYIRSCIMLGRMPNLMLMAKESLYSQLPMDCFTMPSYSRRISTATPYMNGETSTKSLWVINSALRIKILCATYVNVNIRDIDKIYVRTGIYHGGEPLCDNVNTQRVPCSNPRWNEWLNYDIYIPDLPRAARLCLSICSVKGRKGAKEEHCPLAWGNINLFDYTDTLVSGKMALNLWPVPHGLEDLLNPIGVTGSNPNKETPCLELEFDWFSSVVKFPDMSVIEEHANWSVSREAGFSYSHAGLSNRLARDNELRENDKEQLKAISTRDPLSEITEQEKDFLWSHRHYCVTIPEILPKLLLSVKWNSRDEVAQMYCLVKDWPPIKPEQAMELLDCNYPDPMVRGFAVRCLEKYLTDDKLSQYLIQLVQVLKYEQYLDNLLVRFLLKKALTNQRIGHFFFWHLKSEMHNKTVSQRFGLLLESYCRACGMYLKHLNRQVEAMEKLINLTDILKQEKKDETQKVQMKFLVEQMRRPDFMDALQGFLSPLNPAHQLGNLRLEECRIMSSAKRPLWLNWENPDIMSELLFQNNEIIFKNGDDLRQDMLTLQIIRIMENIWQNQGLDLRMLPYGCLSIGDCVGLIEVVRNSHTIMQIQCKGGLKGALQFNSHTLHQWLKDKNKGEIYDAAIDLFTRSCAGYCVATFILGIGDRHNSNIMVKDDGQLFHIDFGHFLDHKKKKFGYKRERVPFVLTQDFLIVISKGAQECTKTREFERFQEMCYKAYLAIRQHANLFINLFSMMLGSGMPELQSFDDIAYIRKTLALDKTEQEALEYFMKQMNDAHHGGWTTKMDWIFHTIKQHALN

What is called IC50 is the midpoint of a concentration-inhibition curve. In the case of `Cc1nn(C)cc1-n1c(=O)n(C)c2cnc3ccc(-c4cnc(N)c(F)c4)cc3c21` [Example 142.2, 8-(6-Amino-5-fluoro-pyridin-3-yl)-1-(1,3-dimethyl-1H-pyrazol-4-yl)-3-methyl-1,3-dihydro-imidazo[4,5-c]quinolin-2-one], the concentration for half-maximal inhibition (IC50) in assay [1] was 0.018 µM; in assay [2] it was 0.287 µM; in assay [3], 0.019 µM.
Take `[2H]C([2H])([2H])Nc1ncc(-c2ccc3ncc4c(c3c2)n(-c2c(C)nn(C)c2C)c(=O)n4C)cc1C(F)(F)F` [Example 143, 3-Methyl-8-(6-trideuteromethylamino-5-trifluoromethyl-pyridin-3-yl)-1-(1,3,5-trimethyl-1H-pyrazol-4-yl)-1,3-dihydro-imidazo[4,5-c]quinolin-2-one]: the concentration for half-maximal inhibition (IC50) in assay [1] worked out at 0.019 µM; in assay [2], 0.111 µM; in assay [3], 0.086 µM.
The corresponding values for `CCNc1ncc(-c2ccc3ncc4c(c3c2)n(-c2c(C)nn(C)c2C)c(=O)n4C)cc1C(F)(F)F` [Example 145.1, 8-(6-Ethylamino-5-trifluoromethyl-pyridin-3-yl)-3-methyl-1-(1,3,5-trimethyl-1H-pyrazol-4-yl)-1,3-dihydro-imidazo[4,5-c]quinolin-2-one] are 0.042 µM, 0.162 µM and 0.28 µM.
The corresponding values for `CNc1ncc(-c2ccc3ncc4c(c3c2)n(-c2cn(C(C)C)nc2C)c(=O)n4C)cc1Cl` [Example 146.3, 8-(5-Chloro-6-methylamino-pyridin-3-yl)-1-(1-isopropyl-3-methyl-1H-pyrazol-4-yl)-3-methyl-1,3-dihydro-imidazo[4,5-c]quinolin-2-one] are 0.05 µM, 0.207 µM and 0.024 µM.
The corresponding values for `CNc1ncc(-c2ccc3ncc4c(c3c2)n(-c2c(C)noc2C)c(=O)n4C)cc1Cl` [Example 146.6, 8-(5-Chloro-6-methylamino-pyridin-3-yl)-1-(3,5-dimethyl-isoxazol-4-yl)-3-methyl-1,3-dihydro-imidazo[4,5-c]quinolin-2-one] are 0.092 µM, 0.281 µM and 0.564 µM.
Take `CCNc1ncc(-c2ccc3ncc4c(c3c2)n(-c2cn(C)nc2C)c(=O)n4C)cc1Cl` [Example 147, 8-(5-Chloro-6-ethylamino-pyridin-3-yl)-1-(1,3-dimethyl-1H-pyrazol-4-yl)-3-methyl-1,3-dihydro-imidazo[4,5-c]quinolin-2-one]: the concentration for half-maximal inhibition (IC50) in assay [1] was 0.025 µM; in assay [2] it was 0.114 µM; in assay [3] it was 0.086 µM.
The corresponding values for `Cc1nn(C)cc1-n1c(=O)n(C)c2cnc3ccc(-c4cnc(F)c(N(C)C)c4)cc3c21` [Example 151, 8-(5-Dimethylamino-6-fluoro-pyridin-3-yl)-1-(1,3-dimethyl-1H-pyrazol-4-yl)-3-methyl-1,3-dihydro-imidazo[4,5-c]quinolin-2-one] are 0.006 µM, 0.021 µM and 0.04 µM.
On to `Cc1nn(C)cc1-n1c(=O)n(C)c2cnc3ccc(-c4cnc(Cl)c(N)c4)cc3c21` [Example 152.2, 8-(5-Amino-6-chloro-pyridin-3-yl)-1-(1,3-dimethyl-1H-pyrazol-4-yl)-3-methyl-1,3-dihydro-imidazo[4,5-c]quinolin-2-one], for which the half-inhibitory concentration (IC50) worked out at 0.017 µM in assay [1], 0.033 µM in assay [2] and 0.033 µM in assay [3].
As to `CCNc1cc(-c2ccc3ncc4c(c3c2)n(-c2cn(C)nc2C)c(=O)n4C)cnc1COC` [Example 156, 1-(1,3-Dimethyl-1H-pyrazol-4-yl)-8-(5-ethylamino-6-methoxymethyl-pyridin-3-yl)-3-methyl-1,3-dihydro-imidazo[4,5-c]quinolin-2-one], the results for the IC50 in assay [1], in assay [2] and in assay [3] were 0.016 µM, 0.029 µM and 0.012 µM, respectively.
As to `CNc1cc(-c2ccc3ncc4c(c3c2)n(-c2cn(C)nc2C)c(=O)n4C)cnc1CO` [Example 158.1, 1-(1,3-Dimethyl-1H-pyrazol-4-yl)-8-(6-hydroxymethyl-5-methylamino-pyridin-3-yl)-3-methyl-1,3-dihydro-imidazo[4,5-c]quinolin-2-one], the values for the IC50 in assay [1], in assay [2] and in assay [3] were 0.009 µM, 0.01 µM and 0.045 µM, respectively.
The corresponding values for `CNc1cc(-c2ccc3ncc4c(c3c2)n(-c2c(C)nn(C)c2C)c(=O)n4C)cnc1CO` [Example 158.4, 8-(6-Hydroxymethyl-5-methylamino-pyridin-3-yl)-3-methyl-1-(1,3,5-trimethyl-1H-pyrazol-4-yl)-1,3-dihydro-imidazo[4,5-c]quinolin-2-one] are 0.072 µM, 0.112 µM and 0.095 µM.
The corresponding values for `CNc1cc(-c2ccc3ncc4c(c3c2)n(-c2cn(C)nc2Cl)c(=O)n4C)cnc1COC` [Example 160.1, 1-(3-Chloro-1-methyl-1H-pyrazol-4-yl)-8-(6-methoxymethyl-5-methylamino-pyridin-3-yl)-3-methyl-1,3-dihydro-imidazo[4,5-c]quinolin-2-one] are 0.014 µM, 0.017 µM and 0.01 µM.
For `CCOCc1cc(-c2ccc3ncc4c(c3c2)n(-c2cn(CC)nc2C)c(=O)n4C)cnc1N` [Example 166.2, 8-(6-Amino-5-ethoxymethyl-pyridin-3-yl)-1-(1-ethyl-3-methyl-1H-pyrazol-4-yl)-3-methyl-1,3-dihydro-imidazo[4,5-c]quinolin-2-one], in that order: 0.015 µM, 0.081 µM and 0.05 µM.
As for `COCc1cc(-c2ccc3ncc4c(c3c2)n(-c2cn(C(C)C)nc2C)c(=O)n4C)cnc1N` [Example 168.1, 8-(6-Amino-5-methoxymethyl-pyridin-3-yl)-1-(1-isopropyl-3-methyl-1H-pyrazol-4-yl)-3-methyl-1,3-dihydro-imidazo[4,5-c]quinolin-2-one], the half-inhibitory concentration (IC50) came to 0.014 µM in assay [1], 0.034 µM in assay [2] and 0.05 µM in assay [3].
For `CNc1ncc(-c2ccc3ncc4c(c3c2)n(-c2cn(C(C)C)nc2C)c(=O)n4C)cc1CO` [Example 171, 8-(5-Hydroxymethyl-6-methylamino-pyridin-3-yl)-1-(1-isopropyl-3-methyl-1H-pyrazol-4-yl)-3-methyl-1,3-dihydro-imidazo[4,5-c]quinolin-2-one], in that order: 0.032 µM, 0.145 µM and 0.041 µM.
For `Cc1nn(C)cc1-n1c(=O)n(C)c2cnc3ccc(-c4cncc(NC(C)C)c4)cc3c21` [Example 177.1, 1-(1,3-Dimethyl-1H-pyrazol-4-yl)-8-(5-isopropylamino-pyridin-3-yl)-3-methyl-1,3-dihydro-imidazo[4,5-c]quinolin-2-one], in that order: 0.014 µM, 0.018 µM and 0.039 µM.
The corresponding values for `CCn1cc(-n2c(=O)n(C)c3cnc4ccc(-c5cncc(NC)c5)cc4c32)c(C)n1` [Example 180.1, 1-(1-Ethyl-3-methyl-1H-pyrazol-4-yl)-3-methyl-8-(5-methylamino-pyridin-3-yl)-1,3-dihydro-imidazo[4,5-c]quinolin-2-one] are 0.041 µM, 0.042 µM and 0.041 µM.
With `Cc1nn(C)cc1-n1c(=O)n(C)c2cnc3ccc(-c4cncc(OCCF)c4)cc3c21` [Example 181, 1-(1,3-Dimethyl-1H-pyrazol-4-yl)-8-[5-(2-fluoro-ethoxy)-pyridin-3-yl]-3-methyl-1,3-dihydro-imidazo[4,5-c]quinolin-2-one], the IC50 was found to be 0.012 µM in assay [1], 0.013 µM in assay [2] and 0.062 µM in assay [3].
For `Cc1nn(C)cc1-n1c(=O)n(C)c2cnc3ccc(-c4cncc(OC(CF)CF)c4)cc3c21` [Example 182, 1-(1,3-Dimethyl-1H-pyrazol-4-yl)-8-[5-(2-fluoro-1-fluoromethyl-ethoxy)-pyridin-3-yl]-3-methyl-1,3-dihydro-imidazo[4,5-c]quinolin-2-one], in that order: 0.009 µM, 0.011 µM and 0.056 µM.
For `COc1cc(-c2ccc3ncc4c(c3c2)n(-c2cn(C(C)C)nc2C)c(=O)n4C)cnc1CO` [Example 194.1, 8-(6-Hydroxymethyl-5-methoxy-pyridin-3-yl)-1-(1-isopropyl-3-methyl-1H-pyrazol-4-yl)-3-methyl-1,3-dihydro-imidazo[4,5-c]quinolin-2-one], in that order: 0.034 µM, 0.324 µM and 0.145 µM.
Turning to `COc1cc(-c2ccc3ncc4c(c3c2)n(-c2cn(C)nc2Cl)c(=O)n4C)cnc1CO` [Example 194.2, 1-(3-chloro-1-methyl-1H-pyrazol-4-yl)-8-(6-hydroxymethyl-5-methoxy-pyridin-3-yl)-3-methyl-1,3-dihydro-imidazo[4,5-c]quinolin-2-one], the IC50 came to 0.004 µM in assay [1], 0.006 µM in assay [2] and 0.027 µM in assay [3].
